In US20170037028A1 (BAYER PHARMA AKTIENGESELLSCHAFT, priority 2013, published 2017):

molecular target: T1, GLUT1 (Homo sapiens, UniProt P11166); assay: Indirect measurement of GLUT1 activity by quantification of intracellular ATP levels (glucose induced ATP increase); format: cell-based; design: endogenous in cells; host or cells: DLD1 or CHO-K1; settings: read-out: IC50 regarding glucose induced ATP increase (GLUT1 inhibition)
T1 sequence (P11166 1-492): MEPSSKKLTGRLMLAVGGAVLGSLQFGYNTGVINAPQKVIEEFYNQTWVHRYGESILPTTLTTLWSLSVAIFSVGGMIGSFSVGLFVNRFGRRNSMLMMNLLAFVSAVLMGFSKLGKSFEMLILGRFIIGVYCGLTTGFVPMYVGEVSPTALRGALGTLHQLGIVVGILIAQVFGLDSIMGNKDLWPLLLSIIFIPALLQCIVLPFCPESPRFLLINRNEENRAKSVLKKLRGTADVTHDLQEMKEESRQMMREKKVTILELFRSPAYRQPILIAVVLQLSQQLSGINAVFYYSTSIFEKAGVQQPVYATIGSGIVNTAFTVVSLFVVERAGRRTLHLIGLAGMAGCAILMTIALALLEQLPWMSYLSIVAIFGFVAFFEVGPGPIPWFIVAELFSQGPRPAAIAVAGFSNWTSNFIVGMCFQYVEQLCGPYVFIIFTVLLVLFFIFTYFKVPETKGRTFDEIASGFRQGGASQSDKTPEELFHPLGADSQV
Procedure, shortened: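 Intracellular ATP was measured by CellTiter-Glo luminescence as an indirect readout of transport: glucose-driven for GLUT1, fructose-driven for GLUT2. DLD1 or CHO-K1 cells were used alongside an oxidative phosphorylation inhibitor. Beforehand, cells were held overnight in glucose-free 1% FCS medium to deplete ATP.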

SMILES | IC50 [nM]
Cc1nn(Cc2ccc(F)cc2)c(C)c1NC(=O)c1cc(O)nc2ccccc12 [Example 1260] | 2170
Cc1c(NC(=O)c2cc(C(N)=O)nc3cc(F)c(Cl)cc23)c(C(F)(F)F)nn1Cc1nc(C(=O)O)co1 [Example 1686] | 1290
Cc1c(NC(=O)c2cc(C(N)=O)nc3ccccc23)c(C(F)(F)F)nn1Cc1cccc(C#N)n1 [Example 1690] | 353
Cc1cc(C)n(CCn2nc(C)c(NC(=O)c3cc(C(F)(F)F)nc4ccc(Br)cc34)c2C)n1 [Example 1233] | 1110
Cc1nn(Cc2ccc(CC(=O)N3CCOCC3)cc2)c(C)c1NC(=O)c1cc(C(F)(F)F)nc2ccc(Br)cc12 [Example 158, 6-bromo-N-(3,5-dimethyl-1-{4-[2-(morpholin-4-yl)-2-oxoethyl]benzyl}-1H-pyrazol-4-yl)-2-(trifluoromethyl)quinoline-4-carboxamide] | 521
Cc1nn(Cc2ccc(C(=O)NCc3cccc(F)c3)cc2)c(C)c1NC(=O)c1cc(C(F)(F)F)nc2ccc(Br)cc12 [Example 1163] | 166
Cc1nn(Cc2ccc(C(=O)NCCN(C)C)cc2)c(C)c1NC(=O)c1cc(C(F)(F)F)nc2ccc(Br)cc12 [Example 142, 6-bromo-N-[1-(4-{[2-(dimethylamino)ethyl]carbamoyl}benzyl)-3,5-dimethyl-1H-pyrazol-4-yl]-2-(trifluoromethyl)quinoline-4-carboxamide] | 70.7
CC(=O)N1CCC(Cn2nc(C)c(NC(=O)c3cc(C(N)=O)nc4ccccc34)c2C)CC1 [Example 1213] | 614
CCN(C(=O)c1cc(C(F)(F)F)nc2ccc(Br)cc12)c1c(C)nn(Cc2ccc(F)cc2)c1C [Example 176, 6-bromo-N-ethyl-N-[1-(4-fluorobenzyl)-3,5-dimethyl-1H-pyrazol-4-yl]-2-(trifluoromethyl)quinoline-4-carboxamide] | 72.2
COC(=O)N1CCC(Cn2nc(C)c(NC(=O)c3cc(C(F)(F)F)nc4ccc(Br)cc34)c2C)CC1 [Example 1171] | 195
CNC(=O)c1nn(Cc2ccc(F)cc2)c(C)c1NC(=O)c1cc(OC)nc2ccccc12 [Example 1253] | 1970
Cc1nn(Cc2ccc(C(=O)Nc3ccncc3)cc2)c(C)c1NC(=O)c1cc(C(F)(F)F)nc2ccc(Br)cc12 [Example 1173] | 198
Cc1nn(Cc2ccc(C(=O)N3CCC(O)C3)cc2)c(C)c1NC(=O)c1cc(C(F)(F)F)nc2ccc(Br)cc12 (racemic) [Example 1161] | 162
Cc1c(NC(=O)c2cc(C(N)=O)nc3ccccc23)c(C(F)(F)F)nn1Cc1cc(CN2CCOCC2)on1 [Example 1702] | 140
COc1cc(C(=O)Nc2c(C)nn(Cc3cccnc3C#N)c2C)c2ccccc2n1 [Example 1153] | 136
CC(C)c1nn(Cc2ccc(F)cc2)c(C(C)C)c1NC(=O)c1cc(C(F)(F)F)nc2ccc(Br)cc12 [Example 1355] | > 13000
CC(C)c1c(NC(=O)c2cc(C(N)=O)nc3ccccc23)c(C(F)(F)F)nn1Cc1ccc(C#N)cc1 [Example 317, N^4-[1-(4-cyanobenzyl)-5-isopropyl-3-(trifluoromethyl)-1H-pyrazol-4-yl]quinoline-2,4-dicarboxamide] | 1050
Cc1nn(Cc2ccc(C(=O)N3CCCC(O)C3)cc2)c(C)c1NC(=O)c1cc(C(F)(F)F)nc2ccc(Br)cc12 (racemic) [Example 1162] | 164
Cc1nn(Cc2ccccc2)c(C)c1NC(=O)c1cc(C(F)(F)F)nc2c(Cl)cc(Cl)cc12 [Example 59, N-(1-benzyl-3,5-dimethyl-1H-pyrazol-4-yl)-6,8-dichloro-2-(trifluoromethyl)quinoline-4-carboxamide] | 92.6
Cc1nn(Cc2cccc(C(F)(F)F)c2)c(C)c1NC(=O)c1cc(C(F)(F)F)nc2c(Cl)cc(Cl)cc12 [Example 1306] | 11100
COCCCNC(=O)c1ccc(Cn2nc(C)c(NC(=O)c3cc(C(F)(F)F)nc4ccc(Br)cc34)c2C)cc1 [Example 1120] | 65.5
Cc1nn(Cc2ccc(F)cc2)c(C)c1NC(=O)c1c2c(nc3ccccc13)CCC2 [Example 1249] | 1670

Now those with a lower IC50, led by results:

IC50 [nM] | SMILES
16 | CCc1c(NC(=O)c2cc(C(N)=O)nc3cc(F)ccc23)c(C(F)(F)F)nn1Cc1ccc(C#N)cc1 [Example 315, N^4-[1-(4-cyanobenzyl)-5-ethyl-3-(trifluoromethyl)-1H-pyrazol-4-yl]-7-fluoroquinoline-2,4-dicarboxamide]
37.9 | Cc1nn(Cc2ccc(C#N)cc2)c(C)c1NC(=O)c1cc(N(C)C)nc2ccccc12 [Example 1092]
1 | Cc1c(NC(=O)c2cc(C(N)=O)nc3cccc(F)c23)c(C(F)(F)F)nn1Cc1ccc(C#N)cc1 [Example 249, N^4-[1-(4-cyanobenzyl)-5-methyl-3-(trifluoromethyl)-1H-pyrazol-4-yl]-5-fluoroquinoline-2,4-dicarboxamide]
25 | Cc1nn(Cc2ccccc2)c(C)c1NC(=O)c1cc(C(F)(F)F)nc2ccc(Br)cc12 [Example 33, N-(1-benzyl-3,5-dimethyl-1H-pyrazol-4-yl)-6-bromo-2-(trifluoromethyl)quinoline-4-carboxamide]
4 | Cc1nn(Cc2ccc(F)cc2C#N)c(C)c1NC(=O)c1cc(C(N)=O)nc2cccc(F)c12 [Example 1662]
3.2 | Cc1c(NC(=O)c2cc(C(N)=O)nc3cc(F)ccc23)c(C(F)(F)F)nn1Cc1ccc(F)cc1C#N [Example 1658]
1 | Cc1nn(Cc2ccc(C#N)cc2F)c(C)c1NC(=O)c1cc(C(N)=O)nc2cc(F)c(F)cc12 [Example 298, N^4-[1-(4-cyano-2-fluorobenzyl)-3,5-dimethyl-1H-pyrazol-4-yl]-6,7-difluoroquinoline-2,4-dicarboxamide]
12.3 | Cc1nn(Cc2ccc(F)c(F)c2)c(C)c1NC(=O)c1cc(C(N)=O)nc2cccc(F)c12 [Example 1471]
1.3 | CCc1cc(Cn2nc(C)c(NC(=O)c3cc(C(N)=O)nc4cc(F)c(Cl)cc34)c2C)on1 [Example 414, 6-chloro-N^4-{1-[(3-ethyl-1,2-oxazol-5-yl)methyl]-3,5-dimethyl-1H-pyrazol-4-yl}-7-fluoroquinoline-2,4-dicarboxamide]
20.8 | Cc1nn(Cc2cccc(C#N)c2)c(C)c1NC(=O)c1cc(C(N)=O)nc2ccccc12 [Example 1455]
9 | Cc1nn(Cc2ccc(C(=O)NCCN3CCOCC3)cc2)c(C)c1NC(=O)c1cc(C(F)(F)F)nc2ccc(Br)cc12 [Example 136, 6-bromo-N-[3,5-dimethyl-1-(4-{[2-(morpholin-4-yl)ethyl]carbamoyl}benzyl)-1H-pyrazol-4-yl]-2-(trifluoromethyl)quinoline-4-carboxamide]
41.6 | COc1ccc(CCn2nc(C)c(NC(=O)c3cc(C(F)(F)F)nc4ccc(Br)cc34)c2C)cc1 [Example 1350]
8.7 | Cc1nn(Cc2ccc(OC(F)(F)F)cc2)c(C)c1NC(=O)c1cc(C(N)=O)nc2cc(F)ccc12 [Example 1461]
41.8 | Cc1nn(Cc2cccc(OC(F)(F)F)c2)c(C)c1NC(=O)c1cc(C(N)=O)nc2cccc(F)c12 [Example 1587]
1.6 | COc1ccc(Cn2nc(C)c(NC(=O)c3cc(OC)nc4ccccc34)c2C)cc1 [Example 1, 2-methoxy-N-[1-(4-methoxybenzyl)-3,5-dimethyl-1H-pyrazol-4-yl]quinoline-4-carboxamide]
59.4 | COCCNC(=O)c1ccc(Cn2nc(C(F)(F)F)c(NC(=O)c3cc(C(F)(F)F)nc4ccc(Br)cc34)c2C)nc1 [Example 1115]
6.7 | COCc1ccc(Cn2nc(C(F)(F)F)c(NC(=O)c3cc(C(N)=O)nc4cccc(F)c34)c2C)cc1 [Example 402, 5-fluoro-N^4-{1-[4-(methoxymethyl)benzyl]-5-methyl-3-(trifluoromethyl)-1H-pyrazol-4-yl}quinoline-2,4-dicarboxamide]
11.3 | Cc1ccc(C#N)c(Cn2nc(C)c(NC(=O)c3cc(C(N)=O)nc4cc(F)c(Cl)cc34)c2C)c1 [Example 1699]
1.6 | Cc1c(NC(=O)c2cc(C(N)=O)nc3ccc(Br)cc23)c(C(F)(F)F)nn1Cc1ccc(CC#N)cc1 [Example 1595]
4.7 | Cc1nn(Cc2ccccc2C#N)c(C)c1NC(=O)c1cc(C(F)(F)F)nc2ccc(Br)cc12 [Example 6, 6-bromo-N-[1-(2-cyanobenzyl)-3,5-dimethyl-1H-pyrazol-4-yl]-2-(trifluoromethyl)quinoline-4-carboxamide]
7 | Cc1nn(Cc2ccccc2C#N)c(C)c1NC(=O)c1cc(C(N)=O)nc2ccccc12 [Example 232, N^4-[1-(2-cyanobenzyl)-3,5-dimethyl-1H-pyrazol-4-yl]quinoline-2,4-dicarboxamide]
8.3 | Cc1ccccc1Cn1nc(C(F)(F)F)c(NC(=O)c2cc(C(N)=O)nc3ccccc23)c1C [Example 1494]
3.2 | COc1cc(C#N)ccc1Cn1nc(C)c(NC(=O)c2cc(C(N)=O)nc3cc(F)c(Cl)cc23)c1C [Example 1651]
22.3 | Cc1c(NC(=O)c2cc(C(N)=O)nc3cccc(F)c23)c(C(F)(F)F)nn1Cc1ccc(C2CCC2)cc1 [Example 1618]
43.1 | CCS(=O)(=O)N1CCC(Cn2nc(C(F)(F)F)c(NC(=O)c3cc(C(N)=O)nc4cc(F)ccc34)c2C)CC1 [Example 1545]
